In PubChem BioAssay (NCI):
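Five concentrations, 48 hours, 96-well plates. TGI: total growth inhibition.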

Key:
Test in all cases: inhibition of tumour cell growth, NCI panel, 48 h
[1] = system: HL-60(TB) leukemia
[2] = system: T-47D breast
[3] = system: IGROV1 ovarian
[4] = system: UACC-62 melanoma
[5] = system: OVCAR-4 ovarian
[6] = system: HCC-2998 colon
[7] = system: PC-3 prostate
[8] = system: K-562 leukemia
[9] = system: SK-OV-3 ovarian
[10] = system: LOX IMVI melanoma
[11] = system: RXF 393 renal
[12] = system: SK-MEL-2 melanoma
[13] = system: A549 NSCLC
[14] = system: ACHN renal
[15] = system: HS 578T breast
[16] = system: RPMI-8226 leukemia
[17] = system: NCI-H23 lung
[18] = system: COLO 205 colon
[19] = system: MALME-3M melanoma
[20] = system: MDA-MB-231 breast
[21] = system: KM12 colon
[22] = system: SW-620 colon
[23] = system: BT-549 breast
[24] = system: 786-0 renal
[25] = system: U251 CNS
[26] = system: UACC-257 melanoma
[27] = system: DU-145 prostate
[28] = system: SNB-19 CNS
[29] = system: NCI/ADR-RES ovarian
[30] = system: HT29 colon
[31] = system: SK-MEL-5 melanoma
[32] = system: SN12C renal
[33] = system: HCT-116 colon
[34] = system: EKVX NSCLC
[35] = system: UO-31 renal
[36] = system: SF-268 CNS
[37] = system: OVCAR-5 ovarian
[38] = system: CCRF-CEM leukemia
[39] = system: HOP-62 NSCLC
[40] = system: HCT-15 colon
[41] = system: A498 renal
[42] = system: MOLT-4 leukemia
[43] = system: OVCAR-8 ovarian
[44] = system: SF-539 CNS
[45] = system: SF-295 CNS
[46] = system: OVCAR-3 ovarian
[47] = system: NCI-H522 lung
[48] = system: MCF7 breast
[49] = system: MDA-MB-435
[50] = system: TK-10 renal
[51] = system: M14 melanoma
[52] = system: SNB-75 CNS
[53] = system: CAKI-1 renal
[54] = system: NCI-H226 lung
[55] = system: MDA-N
[56] = system: HOP-92 NSCLC
[57] = system: SR leukemia
[58] = system: NCI-H460 lung
[59] = system: SK-MEL-28 melanoma

## CC(=O)C1(C)CC(C#N)(C#N)C(C#N)=C1N (stereo unspecified)
[1]
  TGI: > 100 µM
[2]
  TGI: > 100 µM
[3]
  TGI: > 100 µM
[4]
  TGI: > 100 µM
[5]
  TGI: > 100 µM
[6]
  TGI: > 100 µM
[7]
  TGI: > 100 µM
[8]
  TGI: > 100 µM
[9]
  TGI: > 100 µM
[10]
  TGI: > 100 µM
[11]
  TGI: > 100 µM
[12]
  TGI: > 100 µM
[13]
  TGI: > 100 µM
[14]
  TGI: > 100 µM
[15]
  TGI: > 100 µM
[16]
  TGI: > 100 µM
[17]
  TGI: > 100 µM
[18]
  TGI: > 100 µM
[19]
  TGI: > 100 µM
[20]
  TGI: > 100 µM
[21]
  TGI: > 100 µM
[22]
  TGI: > 100 µM
[23]
  TGI: > 100 µM
[24]
  TGI: > 100 µM
[25]
  TGI: > 100 µM
[26]
  TGI: > 100 µM
[27]
  TGI: > 100 µM
[28]
  TGI: > 100 µM
[29]
  TGI: > 100 µM
[30]
  TGI: > 100 µM
[31]
  TGI: > 100 µM
[32]
  TGI: > 100 µM
[33]
  TGI: > 100 µM
[34]
  TGI: 85.2 µM
[35]
  TGI: > 100 µM
[36]
  TGI: > 100 µM
[37]
  TGI: > 100 µM
[38]
  TGI: > 100 µM
[39]
  TGI: > 100 µM
[40]
  TGI: > 100 µM
[41]
  TGI: > 100 µM
[42]
  TGI: > 100 µM
[43]
  TGI: > 100 µM
[44]
  TGI: > 100 µM
[45]
  TGI: > 100 µM
[46]
  TGI: > 100 µM
[47]
  TGI: > 100 µM
[48]
  TGI: > 100 µM
[49]
  TGI: > 100 µM
[50]
  TGI: > 100 µM
[51]
  TGI: > 100 µM
[52]
  TGI: > 100 µM
[53]
  TGI: > 100 µM
[54]
  TGI: > 100 µM
[55]
  TGI: > 100 µM
[56]
  TGI: 55.3 µM
[57]
  TGI: > 100 µM

## NC(=O)NNCc1c(-c2ccccc2)no[n+]1[O-]
[1]
  TGI: > 100 µM
[58]
  TGI: > 100 µM
[2]
  TGI: > 100 µM
[3]
  TGI: > 100 µM
[4]
  TGI: > 100 µM
[5]
  TGI: > 100 µM
[6]
  TGI: > 100 µM
[7]
  TGI: > 100 µM
[8]
  TGI: > 100 µM
[9]
  TGI: > 100 µM
[10]
  TGI: > 100 µM
[11]
  TGI: > 100 µM
[12]
  TGI: > 100 µM
[13]
  TGI: > 100 µM
[14]
  TGI: > 100 µM
[15]
  TGI: > 100 µM
[16]
  TGI: > 100 µM
[17]
  TGI: > 100 µM
[18]
  TGI: > 100 µM
[19]
  TGI: > 100 µM
[20]
  TGI: > 100 µM
[21]
  TGI: > 100 µM
[22]
  TGI: > 100 µM
[23]
  TGI: > 100 µM
[24]
  TGI: > 100 µM
[25]
  TGI: > 100 µM
[26]
  TGI: > 100 µM
[27]
  TGI: > 100 µM
[28]
  TGI: > 100 µM
[29]
  TGI: > 100 µM
[30]
  TGI: > 100 µM
[59]
  TGI: > 100 µM
[31]
  TGI: > 100 µM
[32]
  TGI: > 100 µM
[33]
  TGI: > 100 µM
[34]
  TGI: > 100 µM
[35]
  TGI: > 100 µM
[36]
  TGI: > 100 µM
[37]
  TGI: > 100 µM
[38]
  TGI: > 100 µM
[39]
  TGI: > 100 µM
[40]
  TGI: > 100 µM
[41]
  TGI: > 100 µM
[42]
  TGI: > 100 µM
[43]
  TGI: > 100 µM
[44]
  TGI: > 100 µM
[45]
  TGI: > 100 µM
[46]
  TGI: > 100 µM
[47]
  TGI: > 100 µM
[48]
  TGI: > 100 µM
[49]
  TGI: > 100 µM
[50]
  TGI: > 100 µM
[51]
  TGI: > 100 µM
[52]
  TGI: > 100 µM
[53]
  TGI: > 100 µM
[54]
  TGI: > 100 µM
[55]
  TGI: > 100 µM
[56]
  TGI: > 100 µM
[57]
  TGI: > 100 µM
